# Measurements reported in patent publication US6825230B2, “Spiro and dispiro 1,2,4-trixolane antimalarials” (Medicines for Malaria Venture MMV, priority 2002, dated 2004).
# Read-outs that look alike come from different tables or passages of the source.
# Experiments:
# [1] = tested on: chloroquine-resistant K1 strain of P. falciparum; assay: In vitro antimalarial semiautomated microdilution assay ([3H]-hypoxanthine incorporation), K1 strain; type: cell-based, Plasmodium falciparum; conditions: Plasmodium falciparum
# In short: (§1)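 IC50 values come from Logit regression of [3H]-hypoxanthine uptake data. Parasites were intraerythrocytic P. falciparum forms taken from asynchronous stock cultures and tested by semiautomated microdilution.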
# [2] = tested on: chloroquine-sensitive NF54 strain of P. falciparum; assay: In vitro antimalarial semiautomated microdilution assay ([3H]-hypoxanthine incorporation), NF54 strain; type: cell-based, Plasmodium falciparum; conditions: Plasmodium falciparum
# In short: as §1
# [3] = tested on: ANKA strain of P. berghei; assay: Single dose STI in vivo screen in infected mice; set-up: species or system Plasmodium berghei; conditions: for Survival (days) 10 mg/kg po: single 10 mg/kg po in 3% ethanol and 7% Tween 80; for Survival (days) 10 mg/kg po / Survival (days) 10 mg/kg SSV po / Survival (days) 10 mg/kg sc: untreated 6-7 days; for Activity (%) 10 mg/kg po: single 10 mg/kg po in 3% ethanol and 7% Tween 80 on day 1 post-infection; for Survival (days) 10 mg/kg SSV po: single 10 mg/kg po in SSV; for Activity (%) 10 mg/kg SSV po: single 10 mg/kg po in standard suspending vehicle (SSV) on day 1 post-infection; for Survival (days) 10 mg/kg sc: single 10 mg/kg sc in 3% ethanol and 7% Tween 80; for Activity (%) 10 mg/kg sc: single 10 mg/kg sc in 3% ethanol and 7% Tween 80 on day 1 post-infection
# [4] = K1, 72 h, read-out: IC50 (ng/ml) K1, chloroquine-resistant K1 strain, 72 h incubation
# [5] = NF54, 72 h, read-out: IC50 (ng/ml) NF54, chloroquine-sensitive NF54 strain, 72 h incubation
# [6] = percent reduction in parasitemia on day 3
# [7] = chloroquine-resistant K1 strain, 72 h incubation, read-out: IC50 (ng/ml) K1
# [8] = chloroquine-sensitive NF54 strain, 72 h incubation, read-out: IC50 (ng/ml) NF54
SMILES,"IC50 [1, 4] [ng/mL]","IC50 [2, 5] [ng/mL]",Survival (days) 10 mg/kg po [3] [days],"Activity (%) 10 mg/kg po [3, 6] [%]",Survival (days) 10 mg/kg SSV po [3] [days],"Activity (%) 10 mg/kg SSV po [3, 6] [%]",Survival (days) 10 mg/kg sc [3] [days],"Activity (%) 10 mg/kg sc [3, 6] [%]","IC50 [1, 7] [ng/mL]","IC50 [2, 8] [ng/mL]",Survival (days) 3 mg/kg SSV po ([3]; single 3 mg/kg po in SSV) [days],"Activity (%) 3 mg/kg SSV po ([3]; single 3 mg/kg po in SSV, percent reduction in parasitemia on day 3) [%]"
O=C(NCCO)[C@H]1CC[C@]2(CC1)OOC1(O2)C2CC3CC(C2)CC1C3 (stereo partly shown) [OZ155],12,> 10,6.3,53,7.0,53,8.3,73,–,–,–,–
O=C(C[C@H]1CC[C@]2(CC1)OO[C@]1(O2)C2CC3CC(C2)CC1C3)NCc1ccccn1 [OZ295],–,–,–,–,7.0,47,–,–,0.44,0.75,6.4,35
NC(=O)NC[C@H]1CC[C@]2(CC1)OOC1(O2)C2CC3CC(C2)CC1C3 (stereo partly shown) [OZ265],–,–,13.0,99,9.7,98,11.7,99.67,0.56,1.6,–,–
c1c[nH]c([C@H]2CC[C@]3(CC2)OOC2(O3)C3CC4CC(C3)CC2C4)n1 (stereo partly shown) [OZ251],–,–,6.7,29,6.0,6,9.0,99.87,0.6,0.35,–,–
COC(=O)c1cncn1C[C@H]1CC[C@]2(CC1)OOC1(O2)C2CC3CC(C2)CC1C3 (stereo partly shown) [OZ223],–,–,7.3,89,6.3,79,12.0,99.57,4,> 10,–,–
[N-]=[N+]=NCC[C@H]1CC[C@]2(CC1)OOC1(O2)C2CC3CC(C2)CC1C3 (stereo partly shown) [OZ228],2,2.1,10.3,99.94,6.0,28,14.0,99.94,–,–,–,–
"c1ccc2c(c1)-c1ccccc1C21OOC2(O1)C1CC3CC(C1)CC2C3 (stereo not shown) [OZ94, Adamantane-2-spiro-3′-1′,2′,4′-trioxolane-5′-spiro-9″-fluorene]",57,28,6.0,21,5.7,0,5.3,11,–,–,–,–
O=C(NC[C@H]1CC[C@]2(CC1)OOC1(O2)C2CC3CC(C2)CC1C3)c1cc[n+]([O-])cc1 (stereo partly shown) [OZ264],–,–,11.0,99.61,10.3,99.92,13.7,99.97,1.2,1.5,–,–
O=C1c2ccccc2S(=O)(=O)N1C[C@H]1CC[C@]2(CC1)OOC1(O2)C2CC3CC(C2)CC1C3 (stereo partly shown) [OZ212],–,–,6.7,66,6.7,25,8.0,59,2.7,2.9,–,–
